In patent publication US8710104B2, “Catecholic butanes and use thereof for cancer therapy” (Triact Therapeutics, Inc., priority 2008, dated 2014):

Experiments:
H1299 NSCLC cells [1] = assay: proliferation of H1299 NSCLC cells; type: cell-based
[2] = target: T1, kinase domain of the IGF-1R (Homo sapiens, UniProt P08069); assay: RTK activity ELISA, IGF-1R kinase domain; type: biochemical; details: ATP 10 μM, IRS-1 substrate peptide 0.2 μM, 45 minute reaction
T1 construct: recombinant proteins representing the kinase domain of the IGF-1R or EGFR (Cell Signaling Technology, Danvers, Mass.); purchased Cell Signaling Technology, Danvers, Mass
T1 sequence (P08069 999-1274 limits assumed): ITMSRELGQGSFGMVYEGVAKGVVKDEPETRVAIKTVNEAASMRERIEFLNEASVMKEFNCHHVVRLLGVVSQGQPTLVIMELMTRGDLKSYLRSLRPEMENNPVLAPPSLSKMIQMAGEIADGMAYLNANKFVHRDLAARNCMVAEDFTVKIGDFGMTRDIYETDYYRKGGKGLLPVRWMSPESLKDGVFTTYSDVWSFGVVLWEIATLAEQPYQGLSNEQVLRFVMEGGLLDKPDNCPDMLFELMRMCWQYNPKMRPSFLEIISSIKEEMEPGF
Description: (§1) Inhibition of lipoxygenase activity was determined by use of a lipoxygenase inhibitor screening assay kit (Cayman Chemicals, Ann Arbor, Mich.). […] LOX activity was determined by the amount of hydroperoxides produced, as quantified by colorimetric readout. Inhibition of RTK activity was determined by ELISA as follows. […] The reaction was stopped with 50 mM EDTA, and biotin-conjugated substrate was captured on a 96-well streptavidin-coated plate. Tyrosine phosphorylation of captured substrate was determined by incubation with anti-phosphotyrosine antibody conjugated to HRP (Santa Cruz Biotechnology, Santa Cruz, Calif.) and colorimetric readout on a 96 well plate reader.

[3] = target: T2, kinase domain of the EGFR (Homo sapiens, UniProt P00533); assay: RTK activity ELISA, EGFR kinase domain; type: biochemical; details: ATP 10 μM, PTP1B substrate peptide 0.2 μM, 45 minute reaction
T2 construct: recombinant proteins representing the kinase domain of the IGF-1R or EGFR (Cell Signaling Technology, Danvers, Mass.); purchased Cell Signaling Technology, Danvers, Mass
T2 sequence (P00533 712-979 limits assumed): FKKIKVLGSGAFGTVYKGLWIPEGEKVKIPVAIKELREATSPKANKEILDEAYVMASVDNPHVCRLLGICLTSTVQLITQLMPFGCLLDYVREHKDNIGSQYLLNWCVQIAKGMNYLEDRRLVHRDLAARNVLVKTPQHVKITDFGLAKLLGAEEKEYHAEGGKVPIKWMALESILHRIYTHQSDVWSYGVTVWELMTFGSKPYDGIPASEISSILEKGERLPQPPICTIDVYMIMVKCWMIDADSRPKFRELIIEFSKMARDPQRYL
Description: as §1

[4] = test system: H1975 NSCLC cells expressing EGFR T790M mutation; assay: proliferation of Iressa-resistant H1975 NSCLC cells; type: cell-based; details: 10 μM TT-100, 3 days
H1975 NSCLC cells = assay: soft agar colony formation, H1975; type: cell-based; details: 5 μM or 30 μM TT-100, 8 days; reduced more at higher dose
Description: (§2) Colony formation was assessed and compared with the control cells grown in the absence of TT-100.

H1299 NSCLC cells [5] = assay: soft agar colony formation, H1299; type: cell-based; details: 5 μM or 30 μM TT-100, 8 days; reduced more at higher dose
Description: as §2

[6] = test system: subcutaneous HER2 breast tumors (MCNeuA cells); assay: MCNeuA syngeneic breast cancer model, tumor growth; type: in vivo, MMTVneu transgenic mice; details: thrice weekly
Description: (§3) MCNeuA cells were implanted in MMTVneu transgenic mice to induce tumor growth. […] Tumor growth was monitored and tumor size was measured at various time points. […] IGF-1R and HER2 phosphorylation were measured by ELISA.

IGF-1R = target: T3, IGF-1R (Mus musculus, UniProt Q60751); assay: IGF-1R phosphorylation in excised breast tumors by ELISA; type: in vivo, MMTVneu transgenic mice; details: tumor excised on day 28, 24 hrs after the final treatment
T3 construct: from tissue; host or cells: excised subcutaneous MCNeuA breast tumours from MMTVneu transgenic mice
T3 sequence (Q60751 31-1373): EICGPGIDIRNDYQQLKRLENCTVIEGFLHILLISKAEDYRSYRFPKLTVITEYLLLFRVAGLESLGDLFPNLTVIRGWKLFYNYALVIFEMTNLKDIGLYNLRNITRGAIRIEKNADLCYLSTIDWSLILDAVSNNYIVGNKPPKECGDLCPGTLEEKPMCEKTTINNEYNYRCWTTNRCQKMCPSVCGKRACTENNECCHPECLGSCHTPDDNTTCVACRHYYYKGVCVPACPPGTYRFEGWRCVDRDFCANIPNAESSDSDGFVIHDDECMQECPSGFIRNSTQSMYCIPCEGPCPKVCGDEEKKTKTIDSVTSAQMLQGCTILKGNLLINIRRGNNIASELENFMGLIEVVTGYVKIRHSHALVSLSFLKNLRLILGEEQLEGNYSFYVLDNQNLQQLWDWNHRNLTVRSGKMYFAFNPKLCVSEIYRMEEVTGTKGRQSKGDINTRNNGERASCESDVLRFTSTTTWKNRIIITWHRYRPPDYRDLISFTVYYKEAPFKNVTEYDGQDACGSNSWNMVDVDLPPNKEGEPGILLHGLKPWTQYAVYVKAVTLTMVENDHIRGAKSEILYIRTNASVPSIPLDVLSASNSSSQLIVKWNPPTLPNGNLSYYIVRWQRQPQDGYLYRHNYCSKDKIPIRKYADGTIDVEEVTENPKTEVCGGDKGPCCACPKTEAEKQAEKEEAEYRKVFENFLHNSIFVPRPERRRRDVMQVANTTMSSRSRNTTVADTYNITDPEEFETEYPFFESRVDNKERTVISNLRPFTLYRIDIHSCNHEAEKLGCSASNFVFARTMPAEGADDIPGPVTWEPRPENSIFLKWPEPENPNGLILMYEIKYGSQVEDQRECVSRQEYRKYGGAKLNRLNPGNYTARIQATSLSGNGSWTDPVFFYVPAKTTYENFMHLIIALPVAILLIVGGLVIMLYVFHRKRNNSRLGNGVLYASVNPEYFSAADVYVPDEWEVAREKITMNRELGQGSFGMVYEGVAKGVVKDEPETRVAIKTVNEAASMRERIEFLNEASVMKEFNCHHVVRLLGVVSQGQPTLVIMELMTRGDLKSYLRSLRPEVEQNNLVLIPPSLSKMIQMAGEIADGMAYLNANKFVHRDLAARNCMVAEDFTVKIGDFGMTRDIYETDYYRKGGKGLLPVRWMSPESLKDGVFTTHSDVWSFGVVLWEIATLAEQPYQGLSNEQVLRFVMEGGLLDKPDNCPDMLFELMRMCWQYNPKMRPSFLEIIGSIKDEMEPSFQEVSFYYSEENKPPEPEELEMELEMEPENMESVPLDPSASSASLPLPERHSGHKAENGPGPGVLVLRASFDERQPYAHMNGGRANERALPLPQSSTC
Description: as §3

HER2 = HER2 phosphorylation in excised breast tumors by ELISA; type: in vivo, MMTVneu transgenic mice; details: tumor excised on day 28, 24 hrs after the final treatment
Description: as §3

ovarian cancer = ovarian cancer patients; topotecan about 1.5 mg/m^2 i.v. days 1-5 of a 21-day course
Description: This example describes a randomized, blinded, placebo-controlled, multicenter, Phase II study designed to provide a preliminary assessment of the safety and efficacy of combining NDGA with topotecan in patients with ovarian cancer. Approximately about 100—about 800 patients are enrolled, with about 50—about 400 patients being assigned to a treatment group and about 50—about 400 patients assigned to a placebo group. The trial will consist of the administration of intravenous repeating doses of NDGA as described above in Example 11 combined with topotecan at about 1.5 mg/m^2 by intravenous infusion on days 1-5 of a 21-day course, with courses repeating throughout the study. Control patients are administered topotecan with placebo. […] Additional outcome measures are as follows:
Primary outcome measure: progression-free survival.

## COc1cc2ncnc(Nc3ccc(F)c(Cl)c3)c2cc1OCCCN1CCOCC1 [Iressa, Gefitinib, reference compound]
H1299 NSCLC cells [1]; 1 μM Iressa, 3 days
  proliferation (percent growth of the control cells), Iressa alone: resistant

## CC(Cc1ccc(O)c(O)c1)C(C)Cc1ccc(O)c(O)c1 (stereo not drawn) [TT-100, nordihydroguaiaretic acid]
[2]
  inhibition of tyrosine kinase activity of purified IGF-1R: directly inhibits
[3]
  inhibition of tyrosine kinase activity of purified EGFR: directly inhibits
[4]
  reduction of proliferation (percent growth of the control cells): approximately 50%
H1299 NSCLC cells [1]; 10 μM or 20 μM TT-100, 3 days, especially at 20 μM
  proliferation (percent growth of the control cells), TT-100 alone: inhibited the proliferation
H1975 NSCLC cells
  colony formation in soft agar: inhibited colony formation
H1299 NSCLC cells [5]
  colony formation in soft agar: inhibited colony formation
[6]; 37.5 mg/kg i.p.
  tumor growth (tumor size): inhibited the growth
[6]; 100 mg/kg by gavage (oral)
  tumor growth (tumor size): inhibited the growth
IGF-1R
  IGF-1R receptor phosphorylation compared to vehicle-treated control: significantly inhibited
HER2
  HER2 receptor phosphorylation compared to vehicle-treated control: significantly inhibited

## CC[C@@]1(O)C(=O)OCc2c1cc1n(c2=O)Cc2cc3c(CN(C)C)c(O)ccc3nc2-1 [topotecan]
Ovarian cancer
  progression free survival (goal of the study): 3-6 months
